Measurements reported in patent US20100267561A1, “HERBICIDAL PYRIDAZINONE DERIVATIVES” (priority 2007, published 2010).

Key:
Test in all cases: Test B pre-/postemergence plant response
Format in all cases: in vivo
[1] = tested on: Italian ryegrass (Lolium multiflorum)
In short: (§1)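 Seeds were sown and sprayed preemergence, while plants at 2 to 18 cm (1- to 4-leaf stage) got postemergence sprays. Compounds were formulated in a non-phytotoxic solvent mixture with surfactant. After 13 to 15 days in a greenhouse, injury was rated visually against untreated controls, 0 (no effect) to 100 (complete control).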

[2] = tested on: bermudagrass (Cynodon dactylon)
In short: as §1

[3] = tested on: cocklebur (Xanthium strumarium)
In short: as §1

[4] = tested on: common (oilseed) sunflower (Helianthus annuus); settings: Preemergence
In short: as §1

[5] = tested on: common ragweed (Ambrosia elation)
In short: as §1

[6] = tested on: goosegrass (Eleusine indica)
In short: as §1

[7] = tested on: johnsongrass (Sorghum halepense)
In short: as §1

kochia (Kochia scoparia) = tested on: kochia (Kochia scoparia)
In short: as §1

[8] = tested on: lambsquarters (Chenopodium album)
In short: as §1

[9] = tested on: morningglory (Ipomoea coccinea)
In short: as §1

soybean (Glycine max) = tested on: soybean (Glycine max)
In short: as §1

[10] = tested on: surinam grass (Brachiaria decumbens)
In short: as §1

[11] = tested on: velvetleaf (Abutilon theophrasti)
In short: as §1

[12] = tested on: wheat (Triticum aestivum)
In short: as §1

[13] = Postemergence, 31 g ai/ha, scale 0 to 100, 0 no effect, 100 complete control
[14] = Postemergence, 62 g ai/ha, scale 0 to 100
[15] = Postemergence, 125 g ai/ha, scale 0 to 100
[16] = Postemergence, 250 g ai/ha, scale 0 to 100
[17] = Preemergence, 31 g ai/ha, 0 to 100 scale, 0 no effect, 100 complete control
[18] = Preemergence, 62 g ai/ha, scale 0 to 100
[19] = Preemergence, 125 g ai/ha, scale 0 to 100
[20] = Preemergence, 250 g ai/ha, scale 0 to 100

Cc1cc(-c2ccc(Br)cc2)nn1-c1c(OC(=O)OC(C)C)cnn(C)c1=O [Compound 6]
Plant response rating, Ryegrass, Italian [1, 13]: 100 | Plant response rating, Ryegrass, Italian [1, 14]: 100 | Plant response rating, Ryegrass, Italian [1, 15]: 100 | Plant response rating, Ryegrass, Italian [1, 16]: 100 | Plant response rating, Ryegrass, Italian [1, 17]: 90 | Plant response rating, Ryegrass, Italian [1, 18]: 100 | Plant response rating, Ryegrass, Italian [1, 19]: 100 | Plant response rating, Ryegrass, Italian [1, 20]: 100 | Bermudagrass plant response rating ([2]; 250 g ai/ha, preemergence, 0-100 scale): 100 | Plant response rating, Bermudagrass [2, 13]: 100 | Plant response rating, Bermudagrass [2, 14]: 100 | Plant response rating, Bermudagrass [2, 15]: 100 | Plant response rating, Bermudagrass [2, 16]: 100 | Plant response rating, Bermudagrass [2, 17]: 100 | Plant response rating, Bermudagrass [2, 18]: 100 | Plant response rating, Bermudagrass [2, 19]: 100 | Plant response rating, Cocklebur [3, 13]: 0 | Plant response rating, Cocklebur [3, 14]: 0 | Plant response rating, Cocklebur [3, 15]: 0 | Plant response rating, Cocklebur [3, 16]: 40 | Plant response rating, Cocklebur [3, 17]: 0 | Plant response rating, Cocklebur [3, 18]: 0 | Plant response rating, Cocklebur [3, 19]: 0 | Plant response rating, Cocklebur [3, 20]: 0 | Plant response rating, Sunflower ([4]; 31 g ai/ha, 0 to 100 scale, 0 no effect, 100 complete control): 0 | Plant response rating, Sunflower ([4]; 62 g ai/ha, scale 0 to 100): 0 | Plant response rating, Sunflower ([4]; 125 g ai/ha, scale 0 to 100): 0 | Plant response rating, Sunflower ([4]; 250 g ai/ha, scale 0 to 100): 0 | Plant response rating, Ragweed [5, 13]: 0 | Plant response rating, Ragweed [5, 14]: 0 | Plant response rating, Ragweed [5, 15]: 0 | Plant response rating, Ragweed [5, 16]: 50 | Plant response rating, Ragweed [5, 17]: 0 | Plant response rating, Ragweed [5, 18]: 0 | Plant response rating, Ragweed [5, 19]: 20 | Plant response rating, Ragweed [5, 20]: 20 | Plant response rating, Goosegrass [6, 13]: 95 | Plant response rating, Goosegrass [6, 14]: 100 | Plant response rating, Goosegrass [6, 15]: 100 | Plant response rating, Goosegrass [6, 16]: 100 | Plant response rating, Goosegrass [6, 17]: 80 | Plant response rating, Goosegrass [6, 18]: 95 | Plant response rating, Goosegrass [6, 19]: 100 | Plant response rating, Goosegrass [6, 20]: 100 | Plant response rating, Johnsongrass [7, 13]: 0 | Plant response rating, Johnsongrass [7, 14]: 0 | Plant response rating, Johnsongrass [7, 17]: 60 | Plant response rating, Johnsongrass [7, 18]: 90 | Plant response rating, Johnsongrass [7, 19]: 95 | Plant response rating, Johnsongrass [7, 20]: 100 | Plant response rating, Kochia (kochia (Kochia scoparia); [13]): 0 | Plant response rating, Kochia (kochia (Kochia scoparia); [14]): 0 | Plant response rating, Kochia (kochia (Kochia scoparia); [15]): 20 | Plant response rating, Kochia (kochia (Kochia scoparia); [16]): 20 | Plant response rating, Kochia (kochia (Kochia scoparia); [17]): 0 | Plant response rating, Kochia (kochia (Kochia scoparia); [18]): 0 | Plant response rating, Kochia (kochia (Kochia scoparia); [19]): 20 | Plant response rating, Kochia (kochia (Kochia scoparia); [20]): 60 | Plant response rating, Lambsquarters [8, 13]: 0 | Plant response rating, Lambsquarters [8, 14]: 0 | Plant response rating, Lambsquarters [8, 15]: 20 | Plant response rating, Lambsquarters [8, 16]: 70 | Plant response rating, Lambsquarters [8, 17]: 0 | Plant response rating, Lambsquarters [8, 19]: 85 | Plant response rating, Lambsquarters [8, 20]: 95 | Plant response rating, Morningglory [9, 13]: 0 | Plant response rating, Morningglory [9, 14]: 0 | Plant response rating, Morningglory [9, 15]: 0 | Plant response rating, Morningglory [9, 16]: 50 | Plant response rating, Morningglory [9, 17]: 0 | Plant response rating, Morningglory [9, 18]: 0 | Plant response rating, Morningglory [9, 19]: 0 | Plant response rating, Morningglory [9, 20]: 0 | Plant response rating, Soybean (soybean (Glycine max); [13]): 0 | Plant response rating, Soybean (soybean (Glycine max); [14]): 60 | Plant response rating, Soybean (soybean (Glycine max); [15]): 75 | Plant response rating, Soybean (soybean (Glycine max); [16]): 90 | Plant response rating, Soybean (soybean (Glycine max); [17]): 0 | Plant response rating, Soybean (soybean (Glycine max); [18]): 0 | Plant response rating, Soybean (soybean (Glycine max); [19]): 40 | Plant response rating, Soybean (soybean (Glycine max); [20]): 70 | Plant response rating, Surinam Grass [10, 13]: 100 | Plant response rating, Surinam Grass [10, 14]: 100 | Plant response rating, Surinam Grass [10, 15]: 100 | Plant response rating, Surinam Grass [10, 16]: 100 | Plant response rating, Surinam Grass [10, 17]: 98 | Plant response rating, Surinam Grass [10, 18]: 98 | Plant response rating, Surinam Grass [10, 19]: 100 | Plant response rating, Surinam Grass [10, 20]: 100 | Plant response rating, Velvetleaf [11, 13]: 0 | Plant response rating, Velvetleaf [11, 14]: 0 | Plant response rating, Velvetleaf [11, 15]: 0 | Plant response rating, Velvetleaf [11, 16]: 10 | Plant response rating, Velvetleaf [11, 17]: 0 | Plant response rating, Velvetleaf [11, 18]: 0 | Plant response rating, Velvetleaf [11, 19]: 0 | Plant response rating, Velvetleaf [11, 20]: 40 | Plant response rating, Wheat [12, 13]: 90 | Plant response rating, Wheat [12, 14]: 100 | Plant response rating, Wheat [12, 15]: 100 | Plant response rating, Wheat [12, 16]: 100 | Plant response rating, Wheat [12, 17]: 35 | Plant response rating, Wheat [12, 18]: 80 | Plant response rating, Wheat [12, 19]: 90 | Plant response rating, Wheat [12, 20]: 90
